Laboratory results: patent publication US10918647B2, “Selective bromodomain inhibition of fungal Bdf1” (University of Southern California, priority 2016, dated 2021)

What was measured:
[1] = tested on: C. albicans; assay: Growth of C. albicans in vitro (liquid culture growth assay); format: cell-based
Text: FIG. 8. CaBdf1 BDs are insensitive to human BET inhibitors. (a) HTRF inhibition assays performed on BD1 and BD2 from CaBdf1 and human Brd4 to evaluate the effects of four human BET inhibitors. Inhibition curves are shown as closed (BD1) and open (BD2) circles in green (Brd4) and magenta (Bdf1). IC50 values are summarized below each graph. (b) Thermal stability of the indicated BET BDs in the presence and absence of BET inhibitors determined by differential scanning fluorimetry. The thermal shift (ΔTm) for each inhibitor is indicated. Curves obtained in the presence (thick lines) or absence (thin lines) are plotted for CaBDF1 BD1 (solid magenta), CaBDF1 BD2 (dashed magenta) and human Brd4 (green). […] Experiments have been performed in the presence of doxycycline, which represses the pTetO-BDF1 allele.
FIG. 13. Identification of a CaBdf1-BD1 inhibitor that phenocopies BD1 inactivation. (a) Chemical structure of dibenzothiazepinone compound MS5. (b) HTRF assay showing that MS5 inhibits CaBdf1-BD1 preferentially over CaBdf1-BD2 and with weak selectivity compared to hBrd4-BD1. (c) ITC experiment showing binding of MS5 towards the indicated BD. (d) Effect of MS5 on the growth of C. albicans. The first allele is indicated below the graph, the second is pMET-BDF1 (top) orpTetO-BDF1 (bottom). Strains were grown in the presence of doxycycline or methionine/cysteine, respectively, to repress expression from the second allele. MS5 compromises growth when CaBdf1-BD2 is inactivated by deletion or point-mutation. Statistical test is a two-sided paired t-test performed on ≥5 biological replicates (*p=0.01 to 0.05; **p=0.001 to 0.01; ***p<0.001). (e) Dose-response experiment showing the effect of MS5 on Bdf1 mutant strains.
We next tested the effect of the identified hit compounds on the growth of C. albicans in vitro. […] We therefore tested compounds that inhibited CaBdf1-BD1 with micromolar IC50 values but which were unselective or only weakly selective for the fungal BD.

[2] = target: T1, CaBdf1 BD2 (Candida albicans, UniProt Q5A4W8); assay: HTRF inhibition assay of BD binding to H4ac4 peptide; details: for inhibition of CaBdf1 BD2: HTRF
T1 sequence (Q5A4W8 383-492 limits assumed): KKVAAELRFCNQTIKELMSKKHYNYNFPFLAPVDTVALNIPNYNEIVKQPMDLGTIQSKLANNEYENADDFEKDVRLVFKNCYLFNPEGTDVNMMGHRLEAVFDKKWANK
Text: (§1) FIG. 7. Homogeneous time-resolved fluorescence (HTRF) assay. a. Assay configuration. A biotinylated tetra-acetylated histone peptide is bound to streptavidin beads which are coupled to a terbium-based donor fluorophore, lumi-Tb cryptate. GST-tagged bromodomain is bound by an anti-GST antibody coupled to the acceptor fluorophore, an organic molecule termed D2. Peptide binding by the bromodomain brings the donor and acceptor within FRET distance. In this situation, excitation of the donor at 337 nm causes energy transfer to the […], whose emitted fluorescence is monitored at 665 nm in a time-resolved manner so as to eliminate transient background fluorescence. b-d. Binding of biotinylated tetra-acetylated H4 (H4ac4) peptide by the BD1 bromodomains from human Brd4 (b), S. cerevisiae Bdf1 (c) and C. albicans Bdf1 (d) as measured by an increase in HTRF signal with increasing peptide concentration.
(§2) A key consideration in establishing fungal BET BD inhibition as a feasible chemotherapeutic strategy is whether these domains can be targeted by small-molecule inhibitors without antagonizing human BET function. To probe the similarity between the ligand binding pockets of C. albicans and human BET BDs, we asked whether human BET inhibitors could inhibit CaBdf1 BDs.

[3] = target: T2, CaBdf1 BD1 (Candida albicans, UniProt Q5A4W8); assay: Isothermal titration calorimetry (ITC); format: binding, C. albicans
T2 sequence (Q5A4W8 206-315 limits assumed): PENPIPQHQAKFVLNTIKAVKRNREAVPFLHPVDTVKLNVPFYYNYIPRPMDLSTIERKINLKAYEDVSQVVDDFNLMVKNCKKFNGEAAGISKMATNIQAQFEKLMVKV

[4] = target: Brd4 BD1 (Homo sapiens, UniProt O60885); assay: Isothermal titration calorimetry (ITC); format: binding
[5] = target: T1, CaBdf1 BD2; assay: Isothermal titration calorimetry (ITC); format: binding, C. albicans
[6] = target: T2, CaBdf1 BD1; assay: HTRF inhibition assay of BD binding to H4ac4 peptide
Text: as §1, with “b-d.” for “b-d. Binding of biotinylated tetra-acetylated H4 (H4ac4) peptide by the BD1 bromodomains from human Brd4 (b), S. cerevisiae Bdf1 (c) and C. albicans Bdf1 (d) as measured by an increase in HTRF signal with increasing peptide concentration.”
as §2

CN1C(=O)c2ccccc2Sc2cc(NC(=O)C3CCCO3)ccc21 (centres unmarked) [MS5, N-(10-methyl-11-oxo-10,11-dihydrodibenzo[b,f][1,4]thiazepin-7-yl)tetrahydrofuran-2-carboxamide]
IC50 ([1]; Candida albicans, read-out: IC50 (growth dose-response curve)): 40000 nM | effect on growth compared to vehicle (DMSO) ([1]; liquid culture, strains expressing WT Bdf1 or mutant Bdf1 inactivated in the first BD): little effect | effect on growth ([1]; strains inactivated in BD2): significantly compromised | inhibition of CaBdf1 BD2 [2]: only a weak inhibitory effect | Kd / affinity ([3]; ITC (MS5: HTRF and ITC assays)): low micromolar

O=C1c2ccccc2Sc2cc(-c3noc(-c4cnccn4)n3)ccc2N1C1CC1 [MS4]
binding (ITC) [4]: no significant binding was detected | effect on the growth of C. albicans in vitro [1]: little effect | inhibition of CaBdf1 BD2 [2]: only modest inhibition

CCOC(=O)Nc1cc(-c2ccc(C)c(NS(C)(=O)=O)c2)nn2c(C)nnc12 [bromosporine, reference compound]
IC50 [2]: ~300 nM

Cc1ccc(Nc2c(-c3ccc(O)cc3)nc3c(C)cccn23)cc1 [MS51, 4-(8-Methyl-3-(p-tolylamino)imidazo[1,2-a]pyridin-2-yl)phenol]
selectivity relative to BD1 of either CaBdf1 or human Brd4 [2]: high selectivity | Kd ([5]; HTRF and ITC assays, read-out: affinity): 1000 to 2000 nM

Cc1sc2c(c1C)C(c1ccc(Cl)cc1)=N[C@@H](CC(=O)OC(C)(C)C)c1nnc(C)n1-2 [JQ1, reference compound]
binding (ITC) ([3]; ITC): no binding was detected | binding (ITC) ([5]; ITC): no binding was detected

COc1cc2c(cc1-c1c(C)noc1C)ncc1[nH]c(=O)n([C@H](C)c3ccccn3)c12 [IBET-151, reference compound]
effect on C. albicans growth ([1]; even when Bdf1 bromodomains are deleted, in the presence of doxycycline (represses pTetO-BDF1 allele)): do not affect | effect on the growth of C. albicans in vitro [1]: none of the BET inhibitors had any significant effect | reduction in sensitivity relative to Brd4 ([6]; CaBdf1 BD1 vs corresponding Brd4 BD): 60 fold | IC50 ([6]; HTRF, strongest inhibition): ~300 nM
